# According to article PMC3946276 (European journal of pharmacology, 2013):
# pKd: −log10 of the molar value.
# Molecular target: T1, G-protein coupled receptor 30 (GPR30) (Rattus norvegicus, UniProt O08878)
# T1 sequence (O08878 1-375): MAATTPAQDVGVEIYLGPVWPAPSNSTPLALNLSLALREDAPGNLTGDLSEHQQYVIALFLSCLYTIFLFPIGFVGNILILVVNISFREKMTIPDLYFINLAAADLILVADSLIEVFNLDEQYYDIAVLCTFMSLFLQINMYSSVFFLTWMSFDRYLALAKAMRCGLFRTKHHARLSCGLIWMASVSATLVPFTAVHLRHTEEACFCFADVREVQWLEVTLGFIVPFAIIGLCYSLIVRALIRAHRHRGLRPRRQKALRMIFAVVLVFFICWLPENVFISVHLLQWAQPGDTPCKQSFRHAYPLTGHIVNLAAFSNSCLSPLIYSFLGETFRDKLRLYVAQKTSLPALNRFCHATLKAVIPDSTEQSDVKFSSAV
# Test: [3H]2ME2 saturation radioligand binding on WB cell membranes
smiles,measurement,value
"COc1cc2c(cc1O)CC[C@@H]1[C@@H]2CC[C@]2(C)[C@@H](O)CC[C@@H]12 [2ME2, 2-methoxyestradiol]",pKd,~8.00
